Reference: patent US20180353501A1 (Arvinas, Inc., priority 2017, published 2018)
Read-outs that look alike come from different tables or passages of the source.

What was measured:
p38δ = biological target: T1, p38δ (Homo sapiens, UniProt O15264); test: Western blot survey of p38 isoform degradation in MDA-MB-231 cells (incl. proteasome rescue, CHX chase, washout); format: cell-based
T1 construct: endogenous in cells; host or cells: MDA-MB-231 (intact cells for degradation; cleared cell lysate for CETSA)
T1 sequence (O15264 1-365): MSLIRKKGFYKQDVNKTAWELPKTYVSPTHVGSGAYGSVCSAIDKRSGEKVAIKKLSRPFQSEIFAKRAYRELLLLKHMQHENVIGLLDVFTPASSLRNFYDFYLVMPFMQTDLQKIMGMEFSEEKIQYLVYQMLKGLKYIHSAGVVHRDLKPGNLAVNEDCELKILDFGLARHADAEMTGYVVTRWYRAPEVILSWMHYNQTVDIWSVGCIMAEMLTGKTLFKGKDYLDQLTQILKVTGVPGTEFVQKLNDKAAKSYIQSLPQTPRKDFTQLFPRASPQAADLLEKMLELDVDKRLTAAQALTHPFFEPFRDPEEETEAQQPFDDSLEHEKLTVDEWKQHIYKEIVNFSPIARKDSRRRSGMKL
Protocol: (§1) FIGS. 11A and 11B. Survey of p38 isoform degradation with foretinib-based VHL PROTACs (related to FIGS. 9A-9C and Table 13). (A) Western blots of amide series PROTACs tested in increasing concentrations (0.025, 0.100, 0.250, 1.0, 5.0 μM) on MDA-MB-231 cells, in duplicate. (B) Same as in (A) but with the phenyl series PROTACs. Summary table of the DC50 (concentration at which half-maximal degradation is achieved) and Dmax (maximum percentage of degradation achieved) is reported, per exemplary PROTAC, in Table 13.
(§2) FIGS. 13A, 13B, 13C, and 13D. Exemplary compounds 50 and 46 degrade p38 isoforms in a manner that is rapid, sustained, and proteasome-dependent. (A) MDA-MB-231 cells were either pre-treated or not with the proteasome inhibitor epoxomicin (1 μM) or the neddylation inhibitor MLN4924 (1 μM) for 30 minutes and subsequently treated with either vehicle (DMSO), exemplary compound 50 (250 nM), or exemplary compound 46 (250 nM) for 6 hours. (B) Quantitative real-time PCR was performed after 24 hours of treatment with either vehicle (DMSO), exemplary compound 50 (250 nM), or exemplary compound 46 (250 nM) in MDAMB-231 cells. The dotted line represents DMSO-treated conditions standardized to a value of 1.0 and mRNA abundance (per treatment group) is represented as a foldchange relative to that value. Data is based on biological duplicates and is normalized to beta-tubulin. (C) Cycloheximide (CHX) chase assay. MDA-MB-231 cells were pre-treated with 100 μg/mL CHX for 1 hour prior to treating for the indicated times with either vehicle (DMSO), exemplary compound 50 (250 nM), or exemplary compound 46 (250 nM). Tubulin-normalized p38α and p38δ abundance values are reported beneath individual lanes. (D) MDA-MB231 cells were treated with either vehicle (DMSO), exemplary compound 50 (250 nM), or exemplary compound 46 (250 nM) for 24 hours before re-plating onto new plastic in fresh medium for an additional 24, 48, or 72 hours (“washout” conditions).
(§3) Cell culture. MDA-MB-231 and HeLa cells were obtained from the American Type Culture Collection (ATCC), cultured in RPMI-1640 (1×) and DMEM (1×) medium, respectively, containing 10% fetal bovine serum (FBS) and 1% penicillin-streptomycin and grown in a humidified incubator at 37° C. and 5% CO2.
(§4) Lysates from MDA-MB-231 cells were washed once with ice cold PBS (1×), followed by lysis in buffer containing 25 mM Tris [pH 7.5], 0.25% sodium deoxycholate, 1% Triton X-100, supplemented with 1× protease inhibitor cocktail (Roche) and phosphatase inhibitors (10 mM NaF, 1 mM Na3VO4, and 20 mM β-glycerophosphate), unless otherwise noted. Lysates were spun at 14,000×g for 10 minutes at 4° C. and supernatant was evaluated for protein content using a Pierce BCA Protein Assay (Thermo Fisher Scientific). 25 to 50 μg of protein was loaded onto 10% SDS-PAGE gels or 4-20% Criterion TGX precast gradient gels (Bio-Rad), transferred to nitrocellulose membranes, and probed with the specified antibodies overnight at 4° C. in 1×TBS-Tween (Tris buffered saline plus 0.02% Tween 20) containing 5% non-fat milk. Immunoblots were visualized using a Bio-Rad ChemiDoc imaging instrument and subsequently processed and quantified using the accompanying Bio-Rad ImageLab software.
(§5) MDA-MB-231 cells were plated at 3×10^5 cells per well in a 6-well dish, allowed to adhere overnight, and switched to serum-free RPMI-1640 (1×) media for 16 hours. Cells were then pre-treated with cycloheximide (Sigma) at 100 μg mL^−1 for 1 hour prior to adding either vehicle (DMSO) or PROTAC (250 nM). At the indicated timepoints, cells were immediately placed on ice, rinsed with 1×PBS, lysed, and boiled.
(§6) MDA-MB-231 cells were plated at 1.5×10^5 cells per well in a 6-well dish and allowed to adhere overnight. On the following day, all cells were treated with either vehicle (DMSO) or PROTAC (250 nM). […]

p38α = biological target: T2, p38α (Homo sapiens, UniProt Q16539); test: as above; format: cell-based; conditions: for Dmax: read-out: p38α Dmax (maximum percentage of degradation achieved)
T2 construct: selectively degrades p38α, whereas exemplary PROTAC 46 (10-atom linker, phenyl attachment) selectively degrades p38δ in MDA-MB-231 cells; endogenous in cells; host or cells: MDA-MB-231
T2 sequence (Q16539 whole entry): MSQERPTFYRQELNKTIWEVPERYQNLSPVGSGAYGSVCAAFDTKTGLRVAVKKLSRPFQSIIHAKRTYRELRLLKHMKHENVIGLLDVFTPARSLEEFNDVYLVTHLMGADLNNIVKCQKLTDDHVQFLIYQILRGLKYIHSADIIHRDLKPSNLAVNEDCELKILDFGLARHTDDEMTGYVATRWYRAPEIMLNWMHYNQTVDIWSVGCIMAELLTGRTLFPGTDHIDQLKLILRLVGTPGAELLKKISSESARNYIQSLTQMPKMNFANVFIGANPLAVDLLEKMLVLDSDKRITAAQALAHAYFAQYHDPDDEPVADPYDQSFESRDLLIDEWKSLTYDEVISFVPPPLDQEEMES
Protocol: as §1, §2, §3, §4, §5, §6

[1] = MDA-MB-231 cells, western blot, read-out: p38α DC50 (concentration at which half-maximal degradation is achieved)
[2] = 250 nM 24 hours, then re-plated without compound
[3] = 250 nM PROTAC 6 hours, pre-treated 1 μM epoxomicin or 1 μM MLN4924

Row | Compound | DC50 (p38δ; MDA-MB-231 cells, western blot) | Dmax (p38δ; MDA-MB-231 cells, western blot) | DC50 (p38α; [1]) | Dmax (p38α; MDA-MB-231 cells, western blot) | p38δ degradation efficacy maintained post-washout (p38δ; [2]) | rescue of p38δ downregulation by proteasome / neddylation inhibitor (p38δ; [3]) | p38δ Dmax (p38δ; MDA-MB-231 cells, western blot) | DC50 (p38α; MDA-MB-231 cells, western blot, read-out: p38α DC50) | p38α degradation efficacy maintained post-washout (p38α; [2]) | rescue of p38α downregulation by proteasome / neddylation inhibitor (p38α; [3]) | p38α Dmax (maximum percentage of degradation achieved) (p38α; MDA-MB-231 cells, western blot)
1 | COc1cc2c(Oc3ccc(NC(=O)C4(C(=O)Nc5ccc(F)cc5)CC4)cc3F)ccnc2cc1OCCCOCCCOCCC(=O)N[C@H](C(=O)N1C[C@H](O)C[C@H]1C(=O)NCc1ccc(-c2scnc2C)cc1)C(C)(C)C [Example 1] | > 5000 nM | 42% | 230 nM | 83% |  |  |  |  |  |  | 
2 | COc1cc2c(Oc3ccc(NC(=O)C4(C(=O)Nc5ccc(F)cc5)CC4)cc3F)ccnc2cc1OCCOCCOCCOc1cc(-c2scnc2C)ccc1CNC(=O)[C@@H]1C[C@@H](O)CN1C(=O)[C@H](C(C)C)N1Cc2ccccc2C1=O [compound 46] | 79.2 ± 28 nM | 98.4% |  | 35% | 24 h | completely rescued | Dmax = 98.4% | > 5000 nM |  |  | 
3 | COc1cc2c(Oc3ccc(NC(=O)C4(C(=O)Nc5ccc(F)cc5)CC4)cc3F)ccnc2cc1OCCCCOCCCCOCC(=O)N[C@H](C(=O)N1C[C@H](O)C[C@H]1C(=O)NCc1ccc(-c2scnc2C)cc1)C(C)(C)C [compound 50, N-(3-fluoro-4-((7-(4-(4-(2-(((S)-1-((2S,4R)-4-hydroxy-2-((4-(4-methylthiazol-5-yl)benzyl)carbamoyl)pyrrolidin-1-yl)-3,3-dimethyl-1-oxobutan-2-yl)amino)-2-oxoethoxy)butoxy)buto-xy)-6-methoxyquinolin-4-yl)oxy)phenyl)-N-(4-fluorophenyl)cyclopropane-1,1-dicarboxa-mide] | > 5000 nM | 18.5% | 9.5 ± 1 nM | 99.6% |  |  |  |  | 72 h | completely rescued | Dmax = 99.6%
